Source: US5075303A, “Pyridine derivatives” (John Wyeth & Brother Limited, priority 1989, dated 1991)

Columns and labels:
[1] = molecular target: T1, 5-HT1A receptor (Rattus norvegicus, UniProt P19327); assay: 5-HT1A receptor binding activity in rat hippocampal membrane homogenate
T1 construct: rat hippocampal membrane homogenate; from tissue; host or cells: rat hippocampus (membrane homogenate)
T1 sequence (P19327 1-422): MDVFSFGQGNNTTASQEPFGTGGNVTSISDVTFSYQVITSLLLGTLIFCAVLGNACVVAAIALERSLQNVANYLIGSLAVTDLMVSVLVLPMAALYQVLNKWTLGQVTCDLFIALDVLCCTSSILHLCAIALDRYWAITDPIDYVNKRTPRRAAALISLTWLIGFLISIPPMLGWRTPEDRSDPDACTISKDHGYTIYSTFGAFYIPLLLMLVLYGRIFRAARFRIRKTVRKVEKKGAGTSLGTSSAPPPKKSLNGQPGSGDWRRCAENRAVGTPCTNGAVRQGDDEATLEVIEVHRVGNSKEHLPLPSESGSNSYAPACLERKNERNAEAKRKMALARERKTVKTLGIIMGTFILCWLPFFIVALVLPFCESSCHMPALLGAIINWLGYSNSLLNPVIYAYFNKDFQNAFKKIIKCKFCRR
Description: The compounds of the invention were tested for 5 HT1A receptor binding activity in rat hippocampal membrane homogenate by the method of B S Alexander and M D Wood, J Pharm Pharmacol, 1988, 40, 888-891.

[2] = molecular target: T2, 5-HT1 receptor (Rattus norvegicus, UniProt P19327); assay: 5-HT1 receptor agonist activity in vivo: 5-HT related behaviour in rats following i.v. administration; conditions: iv, calculated by the method of Kimball et al
T2 construct: 5-HT related behaviour in rats following i.v. administration; from tissue; host or cells: living rat (in vivo test, endogenous receptor)
T2 sequence (P19327 1-422): T1 sequence (P19327 1-422)
Description: The compounds are evaluated for 5-HT1 receptor agonist activity in vivo by a method involving the assessment of 5-HT related behaviour in rats following i.v. administration of the test compound (M D Tricklebank et al, European Journal of Pharmacol, 1985, 106, 271-282).

[3] = molecular target: T3, 5HT1A receptor (Cavia porcellus, UniProt A0A286Y074); assay: antagonism of 8-hydroxy-2-(di-n-propylamino)tetralin in the guinea-pig ileum in vitro; assay type: biochemical
T3 construct: in the guinea-pig ileum in vitro; from tissue; host or cells: guinea-pig ileum
T3 sequence (A0A286Y074 1-421): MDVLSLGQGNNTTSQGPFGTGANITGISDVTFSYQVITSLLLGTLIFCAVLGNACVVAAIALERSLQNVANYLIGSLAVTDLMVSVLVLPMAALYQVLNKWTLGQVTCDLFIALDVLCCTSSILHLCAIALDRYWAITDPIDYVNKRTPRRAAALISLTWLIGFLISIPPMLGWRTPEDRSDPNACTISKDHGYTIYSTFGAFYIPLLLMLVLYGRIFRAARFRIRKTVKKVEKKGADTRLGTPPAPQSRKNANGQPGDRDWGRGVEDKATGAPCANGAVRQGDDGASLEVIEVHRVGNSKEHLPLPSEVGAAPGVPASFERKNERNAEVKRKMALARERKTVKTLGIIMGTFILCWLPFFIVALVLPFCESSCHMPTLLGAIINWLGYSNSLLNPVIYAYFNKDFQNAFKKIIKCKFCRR

SMILES	IC50 [1] [nM]	ED50 [2] [mg/kg]	pA2 [3]
CN(CCNC(=O)Cc1c(F)cccc1F)C1CCc2cccnc2C1 (stereo not drawn) [Example 35, N-{2-[N'-(5,6,7,8-Tetrahydroquinolin-7 yl)-N'-methyl]aminoethyl}-2,6-difluorophenylacetamide]	131		
c1cnc2c(c1)CCC(N1CCCC1)C2 (stereo not drawn) [Example 38, 5,6,7,8-Tetrahydro 7-pyrrolidinoquinoline]	55	0.57	
CCCN(CCC)C1CCc2cccnc2C1 (stereo not drawn) [Example 12, 5,6,7,8-Tetrahydro-7--(1,1-dipropylamino)quinoline]	138	0.62	
CCCN(CC1COc2ccccc2O1)C1CCc2cccnc2C1 (stereo not drawn) [Example 15]	42		
CN(CCC1COc2ccccc2O1)C1CCc2cccnc2C1 (stereo not drawn) [Example 20, 7-Amino-5,6,7,8-tetrahydro N-{2 [2 (2,3 dihydro-1,4-benzodioxinyl)]ethyl}-N-methylquinoline]	68		
CN(C)C1CCc2cccnc2C1 (stereo not drawn) [Example 3, 5,6,7,8-Tetrahydro-7-dimethylaminoquinoline]	137		
CCCN(CCNC(=O)c1ccc(F)cc1)C1CCc2cccnc2C1 (stereo not drawn) [Example 19, 4-Fluoro-N-[2-[N --(5,6,7,8-tetrahydroquinoin-7 yl)-N'-propyl]aminoethyl}benzamide]	9	0.52	
CN(CCCCN1C(=O)CC2(CCCC2)CC1=O)C1CCc2cccnc2C1 (stereo not drawn) [Example 16, 8-{4-[N-(5,6,7,8-Tetrahydroquinolin-7 yl) N-methyl]aminobutyl}-8-azaspiro[4.5]decan 7,9-dione]	26	0.81	7.7
c1cnc2c(c1)CCC(N1CCC1)C2 (stereo not drawn) [Example 50, 7-Azetidino-5,6,7,8-tetrahydroquinoline]	136	1.1	
